According to patent US11551827B2, “Perfluorinated 1-alkoxypropenes in dielectric fluids and electrical devices” (priority 2017, dated 2023):

Experiment: Gaseous dielectric breakdown voltage measurement (Hipotronics OC60D-A dielectric strength tester)
Assay type: physicochemical
Details: for Dielectric breakdown voltage: gas, 0.1 inch (2.5 mm) gap, copper electrodes; for Performance as electrical insulator and interrupter (in words): judged from the dielectric breakdown voltage values in Tables 2 and 3
Method: The gaseous dielectric breakdown voltages of PE-1, PE-2, CE-1, CE-2, and CE-3 were measured experimentally using a Hipotronics OC60D-A dielectric strength tester (available from Hipotronics, Brewster, N.Y., USA), which was modified to allow measurements on low pressure gases. The electrode configuration consisted of two copper electrodes separated by a 0.1 inch (2.5 mm) gap housed in a gas tight PFTE (polytetrafluoroethylene) test chamber. The test chamber was first evacuated and then PE-1, PE-2, CE-1, CE-2, or CE-3 was charged to full vapor pressure and evacuated to the measured pressures indicated in Tables 2 and 3. The dielectric breakdown voltage (measured in kV) was measured after each evacuation to determine the dielectric strength and the results are summarized in Tables 2 and 3.

Row | SMILES | Dielectric breakdown voltage (pressure 20 kPa) [kV] | Dielectric breakdown voltage (pressure 40 kPa) [kV] | Dielectric breakdown voltage (pressure 60 kPa) [kV] | Dielectric breakdown voltage (pressure 80 kPa) [kV] | Dielectric breakdown voltage (pressure 100 kPa) [kV] | Dielectric breakdown voltage (pressure 120 kPa) [kV] | Dielectric breakdown voltage (pressure 140 kPa) [kV] | Performance as electrical insulator and interrupter (in words) | Dielectric breakdown voltage (pressure 13.9 kPa) [kV] | Dielectric breakdown voltage (pressure 27.6 kPa) [kV] | Dielectric breakdown voltage (pressure 41.4 kPa) [kV] | Dielectric breakdown voltage (pressure 55.2 kPa) [kV] | Dielectric breakdown voltage (pressure 69.0 kPa) [kV] | Dielectric breakdown voltage (pressure 82.8 kPa) [kV] | Dielectric breakdown voltage (pressure 110 kPa) [kV] | Dielectric breakdown voltage (pressure 124 kPa) [kV] | Dielectric breakdown voltage (pressure 139 kPa) [kV]
1 | FC(OC(F)(F)F)=C(F)C(F)(F)F [PE-2, 1,2,3,3,3-Pentafluoro-1-(Perfluoromethoxy)Prop-1-Ene] | 8.8 | 10.9 | 15.6 | 19.5 | 22.7 | 25.7 | 28.9 | excellent electrical insulators and interrupters |  |  |  |  |  |  |  |  | 
2 | FC(F)=C(F)C(F)(F)F [CE-1, Hexafluoropropene] | 8.8 | 9.8 | 11.5 | 13.9 | 16.3 | 18.4 | 20.1 |  |  |  |  |  |  |  |  |  | 
3 | FS(F)(F)(F)(F)F [CE-2, Sulfur hexafluoride] |  |  |  |  |  |  |  |  | 4.6 | 5.4 | 7.8 | 9.5 | 10.9 | 12.5 | 15.3 | 16.7 | 18.0
4 | FC(OC(F)(F)C(F)(F)F)=C(F)C(F)(F)F [PE-1, 1,2,3,3,3-Pentafluoro-1-(Perfluoroethoxy)Prop-1-Ene] | 8.7 | 13.5 | 18.7 |  |  |  |  | excellent electrical insulators and interrupters |  |  |  |  |  |  |  |  | 
5 | FC1(F)C(F)(F)C1(F)F [CE-3, Perfluorocyclopropane] |  |  |  |  |  |  |  |  | 4.6 | 6.4 | 8.0 | 9.5 | 10.6 | 12.0 | 14.7 | 16.0 | 17.1
